Experimental data as given in ChEMBL document CHEMBL2203246, “Design and biological evaluation of imidazo[1,2-a]pyridines as novel and potent ASK1 inhibitors” (Bioorg Med Chem Lett, 2012).
Active and inactive are the calls of the source. The calls are words filed in the database; no cut-off is given here.

Tests used:
INS1 [1] = assay: Inhibition of ASK1 in rat INS1 ([…]) cells assessed as downregulation of streptozotocin-induced p38 phosphorylation incubated for 1 hr prior to streptozotocin induction measured after 1 hr by Western blot analysis; format: cell-based
INS1 [2] = assay: Inhibition of ASK1 in rat INS1 ([…]) cells assessed as downregulation of streptozotocin-induced JNK phosphorylation at 0.3 to 10 uM incubated for 1 hr prior to streptozotocin induction measured after 1 hr by Western blot analysis; format: cell-based
[3] = molecular target: T1, Mitogen-activated protein kinase kinase kinase 5 (Homo sapiens, UniProt Q99683); assay: Competitive inhibition of human recombinant N-terminal FLAG-tagged ASK1 expressed in baculovirus infected […] cells after 60 mins by scintillation counting analysis in presence of [gamma-33P]ATP
T1 sequence (Q99683 whole entry): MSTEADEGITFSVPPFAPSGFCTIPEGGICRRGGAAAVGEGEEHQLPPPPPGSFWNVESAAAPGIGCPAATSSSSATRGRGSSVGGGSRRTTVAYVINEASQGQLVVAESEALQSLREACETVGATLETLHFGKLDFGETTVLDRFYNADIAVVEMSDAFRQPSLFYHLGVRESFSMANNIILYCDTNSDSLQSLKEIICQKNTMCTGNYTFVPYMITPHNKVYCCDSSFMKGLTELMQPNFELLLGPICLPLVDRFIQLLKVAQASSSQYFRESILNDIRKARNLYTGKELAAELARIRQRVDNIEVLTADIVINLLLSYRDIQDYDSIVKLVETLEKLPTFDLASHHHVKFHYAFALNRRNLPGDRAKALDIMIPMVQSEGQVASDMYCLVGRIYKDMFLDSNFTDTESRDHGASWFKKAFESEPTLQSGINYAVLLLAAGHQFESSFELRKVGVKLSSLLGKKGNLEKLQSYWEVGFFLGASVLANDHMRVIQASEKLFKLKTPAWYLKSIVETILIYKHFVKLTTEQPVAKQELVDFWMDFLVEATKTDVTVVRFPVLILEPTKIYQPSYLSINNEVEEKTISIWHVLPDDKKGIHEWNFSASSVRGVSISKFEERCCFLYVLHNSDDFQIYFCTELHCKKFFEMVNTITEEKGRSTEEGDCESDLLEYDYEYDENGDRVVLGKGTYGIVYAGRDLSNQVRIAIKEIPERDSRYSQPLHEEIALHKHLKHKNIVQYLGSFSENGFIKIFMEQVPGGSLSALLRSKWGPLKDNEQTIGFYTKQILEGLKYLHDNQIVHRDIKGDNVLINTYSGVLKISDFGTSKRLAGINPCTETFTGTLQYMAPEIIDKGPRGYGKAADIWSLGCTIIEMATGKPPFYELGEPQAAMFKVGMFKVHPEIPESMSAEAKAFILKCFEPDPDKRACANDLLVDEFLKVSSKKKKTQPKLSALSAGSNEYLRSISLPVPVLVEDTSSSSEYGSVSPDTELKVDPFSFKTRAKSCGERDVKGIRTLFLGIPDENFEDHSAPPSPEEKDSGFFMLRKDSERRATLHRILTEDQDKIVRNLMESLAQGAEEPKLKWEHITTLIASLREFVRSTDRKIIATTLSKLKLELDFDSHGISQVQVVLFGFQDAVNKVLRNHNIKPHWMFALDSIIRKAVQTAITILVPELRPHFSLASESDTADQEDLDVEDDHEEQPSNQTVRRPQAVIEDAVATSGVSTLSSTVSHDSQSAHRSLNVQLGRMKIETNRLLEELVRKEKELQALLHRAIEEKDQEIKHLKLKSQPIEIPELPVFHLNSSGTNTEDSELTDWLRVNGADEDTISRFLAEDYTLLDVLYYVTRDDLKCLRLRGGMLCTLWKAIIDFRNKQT

physchem = settings: buffer, pH 7.4
Description: Lipophilicity, log D of the compound at pH 7.4

[4] = molecular target: Serine/threonine-protein kinase B-raf (Homo sapiens, UniProt P15056); assay: Inhibition of BRAF
Serine/threonine-protein kinase B-raf, sequence (P15056 whole entry): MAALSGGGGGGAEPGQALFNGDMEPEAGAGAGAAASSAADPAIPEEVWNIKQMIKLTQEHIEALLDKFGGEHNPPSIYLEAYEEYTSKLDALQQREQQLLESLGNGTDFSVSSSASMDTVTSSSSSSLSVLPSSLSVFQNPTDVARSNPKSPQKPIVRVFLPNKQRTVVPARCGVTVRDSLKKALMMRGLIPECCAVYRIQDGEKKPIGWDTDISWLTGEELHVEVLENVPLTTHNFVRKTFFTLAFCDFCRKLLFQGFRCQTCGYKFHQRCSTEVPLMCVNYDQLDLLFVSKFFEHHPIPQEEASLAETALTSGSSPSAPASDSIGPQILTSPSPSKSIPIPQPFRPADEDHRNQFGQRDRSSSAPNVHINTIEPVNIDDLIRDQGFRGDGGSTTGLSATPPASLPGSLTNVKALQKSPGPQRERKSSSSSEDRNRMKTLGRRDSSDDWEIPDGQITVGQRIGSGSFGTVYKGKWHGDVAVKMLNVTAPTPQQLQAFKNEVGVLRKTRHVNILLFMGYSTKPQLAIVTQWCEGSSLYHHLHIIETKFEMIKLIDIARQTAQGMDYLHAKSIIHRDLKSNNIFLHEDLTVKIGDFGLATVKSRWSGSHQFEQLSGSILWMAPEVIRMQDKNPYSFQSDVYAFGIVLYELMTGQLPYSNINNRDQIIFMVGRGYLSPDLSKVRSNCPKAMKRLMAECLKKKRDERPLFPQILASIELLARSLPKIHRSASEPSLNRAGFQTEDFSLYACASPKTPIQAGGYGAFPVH

[5] = molecular target: Protein kinase C theta type (Homo sapiens, UniProt Q04759); assay: Inhibition of PKCtheta
Protein kinase C theta type, sequence (Q04759 whole entry): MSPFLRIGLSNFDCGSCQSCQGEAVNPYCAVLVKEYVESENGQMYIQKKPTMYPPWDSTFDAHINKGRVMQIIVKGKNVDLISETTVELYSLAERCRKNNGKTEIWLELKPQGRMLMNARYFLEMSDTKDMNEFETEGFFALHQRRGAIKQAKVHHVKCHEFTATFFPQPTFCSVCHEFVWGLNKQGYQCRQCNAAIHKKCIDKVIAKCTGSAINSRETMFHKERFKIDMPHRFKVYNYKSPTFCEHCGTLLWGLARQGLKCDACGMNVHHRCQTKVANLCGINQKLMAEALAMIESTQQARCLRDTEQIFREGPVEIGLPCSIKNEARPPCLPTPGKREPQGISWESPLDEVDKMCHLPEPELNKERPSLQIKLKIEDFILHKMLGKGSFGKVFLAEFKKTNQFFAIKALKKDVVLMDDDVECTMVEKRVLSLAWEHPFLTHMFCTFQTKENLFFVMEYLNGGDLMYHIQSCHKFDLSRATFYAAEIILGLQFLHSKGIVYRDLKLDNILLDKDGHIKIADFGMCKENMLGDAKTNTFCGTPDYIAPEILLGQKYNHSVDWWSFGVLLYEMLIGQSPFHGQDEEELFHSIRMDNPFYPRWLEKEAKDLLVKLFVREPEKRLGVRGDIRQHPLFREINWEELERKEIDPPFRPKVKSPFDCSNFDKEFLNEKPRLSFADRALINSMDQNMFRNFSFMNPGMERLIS

[6] = molecular target: Glycogen synthase kinase-3 beta (Homo sapiens, UniProt P49841); assay: Inhibition of GSK3beta
Glycogen synthase kinase-3 beta, sequence (P49841 whole entry): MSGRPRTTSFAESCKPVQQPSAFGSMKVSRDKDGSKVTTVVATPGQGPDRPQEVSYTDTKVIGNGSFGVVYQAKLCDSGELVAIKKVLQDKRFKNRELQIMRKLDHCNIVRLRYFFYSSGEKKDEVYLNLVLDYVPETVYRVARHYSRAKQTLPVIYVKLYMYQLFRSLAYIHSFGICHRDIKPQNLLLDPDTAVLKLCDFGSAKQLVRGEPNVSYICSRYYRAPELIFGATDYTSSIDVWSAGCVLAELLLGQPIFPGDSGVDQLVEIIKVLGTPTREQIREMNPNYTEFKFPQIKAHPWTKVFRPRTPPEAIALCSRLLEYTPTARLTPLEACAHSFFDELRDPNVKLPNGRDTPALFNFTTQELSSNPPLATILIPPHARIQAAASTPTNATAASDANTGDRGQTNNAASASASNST

[7] = molecular target: Mitogen-activated protein kinase 14 (Homo sapiens, UniProt Q16539); assay: Inhibition of p38alpha
Mitogen-activated protein kinase 14, sequence (Q16539 whole entry): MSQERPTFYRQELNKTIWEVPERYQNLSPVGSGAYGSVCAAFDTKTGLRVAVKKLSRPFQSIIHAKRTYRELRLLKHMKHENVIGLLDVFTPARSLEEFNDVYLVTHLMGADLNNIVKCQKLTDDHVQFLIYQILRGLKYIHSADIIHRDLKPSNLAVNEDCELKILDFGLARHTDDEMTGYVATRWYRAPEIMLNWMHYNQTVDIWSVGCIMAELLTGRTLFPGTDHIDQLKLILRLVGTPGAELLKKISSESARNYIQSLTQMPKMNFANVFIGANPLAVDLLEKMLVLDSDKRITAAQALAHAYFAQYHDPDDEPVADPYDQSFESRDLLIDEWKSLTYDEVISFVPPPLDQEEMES

[8] = molecular target: Mitogen-activated protein kinase 8 (Homo sapiens, UniProt P45983); assay: Inhibition of JNK1
Mitogen-activated protein kinase 8, sequence (P45983 whole entry): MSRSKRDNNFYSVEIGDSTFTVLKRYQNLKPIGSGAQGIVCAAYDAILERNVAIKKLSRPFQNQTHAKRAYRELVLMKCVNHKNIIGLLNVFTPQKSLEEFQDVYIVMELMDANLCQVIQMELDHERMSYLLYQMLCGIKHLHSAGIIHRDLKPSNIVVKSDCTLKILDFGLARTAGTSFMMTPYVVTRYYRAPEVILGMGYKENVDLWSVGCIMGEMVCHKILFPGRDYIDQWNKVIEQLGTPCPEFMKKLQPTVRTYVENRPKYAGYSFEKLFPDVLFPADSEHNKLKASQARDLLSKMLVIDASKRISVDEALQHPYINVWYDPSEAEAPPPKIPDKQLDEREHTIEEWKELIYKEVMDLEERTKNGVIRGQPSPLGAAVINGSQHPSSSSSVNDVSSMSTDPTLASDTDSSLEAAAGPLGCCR

[9] = molecular target: Mitogen-activated protein kinase 3 (Homo sapiens, UniProt P27361); assay: Inhibition of ERK1
Mitogen-activated protein kinase 3, sequence (P27361 whole entry): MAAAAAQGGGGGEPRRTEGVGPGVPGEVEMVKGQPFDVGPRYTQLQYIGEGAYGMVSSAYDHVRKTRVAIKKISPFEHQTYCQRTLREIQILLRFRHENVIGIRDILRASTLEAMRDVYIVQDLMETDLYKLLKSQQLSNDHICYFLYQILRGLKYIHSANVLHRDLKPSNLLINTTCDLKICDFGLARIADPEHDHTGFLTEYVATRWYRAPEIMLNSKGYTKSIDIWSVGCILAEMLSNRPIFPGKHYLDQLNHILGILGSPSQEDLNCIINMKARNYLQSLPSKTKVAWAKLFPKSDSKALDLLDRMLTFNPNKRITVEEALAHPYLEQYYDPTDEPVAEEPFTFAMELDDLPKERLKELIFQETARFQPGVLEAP

[10] = molecular target: T2, Inhibitor of nuclear factor kappa-B kinase subunit beta (Homo sapiens, UniProt O14920); assay: Inhibition of IKKbeta
T2 sequence (O14920 whole entry): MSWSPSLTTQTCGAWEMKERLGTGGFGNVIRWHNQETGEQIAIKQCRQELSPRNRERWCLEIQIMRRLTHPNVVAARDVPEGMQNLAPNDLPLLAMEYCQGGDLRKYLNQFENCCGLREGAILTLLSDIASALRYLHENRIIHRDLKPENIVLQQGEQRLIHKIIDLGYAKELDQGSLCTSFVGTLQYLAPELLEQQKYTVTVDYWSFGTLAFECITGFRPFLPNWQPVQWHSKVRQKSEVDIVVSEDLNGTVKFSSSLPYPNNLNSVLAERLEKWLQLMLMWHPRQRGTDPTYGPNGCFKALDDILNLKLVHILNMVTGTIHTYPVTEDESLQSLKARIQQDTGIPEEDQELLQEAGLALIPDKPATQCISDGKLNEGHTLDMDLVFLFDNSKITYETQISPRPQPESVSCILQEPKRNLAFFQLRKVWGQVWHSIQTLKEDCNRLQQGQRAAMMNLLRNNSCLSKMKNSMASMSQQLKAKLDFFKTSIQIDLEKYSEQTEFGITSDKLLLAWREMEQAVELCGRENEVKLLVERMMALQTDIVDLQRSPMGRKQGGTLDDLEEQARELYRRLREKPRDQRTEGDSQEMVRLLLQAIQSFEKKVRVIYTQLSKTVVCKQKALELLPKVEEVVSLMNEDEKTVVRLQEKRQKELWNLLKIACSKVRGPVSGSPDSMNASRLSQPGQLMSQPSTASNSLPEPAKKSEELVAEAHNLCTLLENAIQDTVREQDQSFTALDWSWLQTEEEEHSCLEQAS

[11] = molecular target: Mitogen-activated protein kinase kinase kinase 1 (Homo sapiens, UniProt Q13233); assay: Inhibition of MEKK1
Mitogen-activated protein kinase kinase kinase 1, sequence (Q13233 whole entry): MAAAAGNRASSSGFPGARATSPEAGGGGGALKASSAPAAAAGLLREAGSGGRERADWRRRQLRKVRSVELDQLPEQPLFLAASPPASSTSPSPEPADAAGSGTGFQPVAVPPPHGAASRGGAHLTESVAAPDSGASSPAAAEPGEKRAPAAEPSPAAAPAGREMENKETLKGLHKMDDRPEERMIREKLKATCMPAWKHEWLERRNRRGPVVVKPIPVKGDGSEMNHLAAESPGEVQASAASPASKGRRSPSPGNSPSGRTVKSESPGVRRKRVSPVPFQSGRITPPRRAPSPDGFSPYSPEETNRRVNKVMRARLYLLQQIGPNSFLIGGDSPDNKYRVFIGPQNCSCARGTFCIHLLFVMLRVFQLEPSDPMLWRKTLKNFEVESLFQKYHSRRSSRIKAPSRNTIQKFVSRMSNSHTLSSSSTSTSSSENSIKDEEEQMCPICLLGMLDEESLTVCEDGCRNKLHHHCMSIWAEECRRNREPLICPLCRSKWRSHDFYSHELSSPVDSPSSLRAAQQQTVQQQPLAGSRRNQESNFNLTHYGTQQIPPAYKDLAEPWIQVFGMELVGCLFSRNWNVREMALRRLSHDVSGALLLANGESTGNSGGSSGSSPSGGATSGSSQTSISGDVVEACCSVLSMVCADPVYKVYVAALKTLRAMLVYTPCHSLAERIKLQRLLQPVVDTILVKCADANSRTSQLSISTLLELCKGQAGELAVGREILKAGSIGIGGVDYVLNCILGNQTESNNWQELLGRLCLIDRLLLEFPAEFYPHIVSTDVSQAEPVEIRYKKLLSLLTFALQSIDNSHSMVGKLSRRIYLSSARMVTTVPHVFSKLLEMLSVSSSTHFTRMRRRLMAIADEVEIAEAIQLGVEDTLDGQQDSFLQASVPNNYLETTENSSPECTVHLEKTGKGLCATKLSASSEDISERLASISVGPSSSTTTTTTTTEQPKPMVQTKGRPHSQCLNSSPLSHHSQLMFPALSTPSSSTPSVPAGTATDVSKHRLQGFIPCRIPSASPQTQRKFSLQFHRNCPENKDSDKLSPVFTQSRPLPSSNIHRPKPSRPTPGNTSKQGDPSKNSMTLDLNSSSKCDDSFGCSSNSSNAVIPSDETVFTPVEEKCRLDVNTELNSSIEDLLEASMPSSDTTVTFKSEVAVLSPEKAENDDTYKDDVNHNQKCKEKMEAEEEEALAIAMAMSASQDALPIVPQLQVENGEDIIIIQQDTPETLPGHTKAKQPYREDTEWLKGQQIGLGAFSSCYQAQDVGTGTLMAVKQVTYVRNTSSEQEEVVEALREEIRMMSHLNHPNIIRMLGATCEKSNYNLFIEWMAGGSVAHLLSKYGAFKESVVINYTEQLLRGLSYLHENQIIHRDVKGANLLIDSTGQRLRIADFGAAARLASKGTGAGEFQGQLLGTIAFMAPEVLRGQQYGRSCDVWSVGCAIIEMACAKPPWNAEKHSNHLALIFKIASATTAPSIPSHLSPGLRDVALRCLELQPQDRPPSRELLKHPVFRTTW

[12] = molecular target: T3, Mitogen-activated protein kinase kinase kinase 6 (Homo sapiens, UniProt O95382); assay: Inhibition of ASK2
T3 sequence (O95382 whole entry): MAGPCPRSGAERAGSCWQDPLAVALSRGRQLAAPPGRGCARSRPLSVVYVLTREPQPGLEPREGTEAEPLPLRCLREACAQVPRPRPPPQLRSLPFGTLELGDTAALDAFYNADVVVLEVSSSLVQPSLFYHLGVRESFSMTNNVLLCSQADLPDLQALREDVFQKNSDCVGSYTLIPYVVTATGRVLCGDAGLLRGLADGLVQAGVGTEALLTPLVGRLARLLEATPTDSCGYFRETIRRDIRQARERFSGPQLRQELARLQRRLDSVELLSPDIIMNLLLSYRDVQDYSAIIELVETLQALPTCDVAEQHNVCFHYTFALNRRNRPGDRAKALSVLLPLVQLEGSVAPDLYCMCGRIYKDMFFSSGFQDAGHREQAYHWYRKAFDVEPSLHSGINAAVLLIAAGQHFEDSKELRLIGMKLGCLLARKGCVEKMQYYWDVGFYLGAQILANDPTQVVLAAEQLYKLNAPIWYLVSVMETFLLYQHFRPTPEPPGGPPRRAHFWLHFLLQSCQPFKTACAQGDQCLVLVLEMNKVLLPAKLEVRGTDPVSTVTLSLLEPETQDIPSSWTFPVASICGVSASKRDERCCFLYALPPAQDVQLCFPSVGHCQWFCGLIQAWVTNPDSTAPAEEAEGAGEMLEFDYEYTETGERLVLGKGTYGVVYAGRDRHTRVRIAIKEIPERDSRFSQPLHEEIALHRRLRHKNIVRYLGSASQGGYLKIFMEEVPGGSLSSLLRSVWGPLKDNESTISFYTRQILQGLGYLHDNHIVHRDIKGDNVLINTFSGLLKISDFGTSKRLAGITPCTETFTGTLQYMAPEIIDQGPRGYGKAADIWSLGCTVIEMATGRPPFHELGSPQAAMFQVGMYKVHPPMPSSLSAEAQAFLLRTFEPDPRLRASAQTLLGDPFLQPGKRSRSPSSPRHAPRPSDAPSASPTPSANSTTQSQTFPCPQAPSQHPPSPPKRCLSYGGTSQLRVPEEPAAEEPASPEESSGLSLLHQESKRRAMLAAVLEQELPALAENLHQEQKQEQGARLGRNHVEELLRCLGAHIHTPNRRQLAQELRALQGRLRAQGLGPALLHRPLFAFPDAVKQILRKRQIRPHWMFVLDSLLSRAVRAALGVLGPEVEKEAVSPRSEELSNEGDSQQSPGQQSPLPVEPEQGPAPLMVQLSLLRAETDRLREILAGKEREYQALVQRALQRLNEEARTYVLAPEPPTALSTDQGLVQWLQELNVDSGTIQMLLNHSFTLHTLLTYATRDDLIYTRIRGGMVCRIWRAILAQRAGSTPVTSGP

CC(C)(C)c1ccc(C(=O)Nc2cn3cc(-n4ccnc4)ccc3n2)cc1 [listing 1 of 3 here]
inhibition (INS1 [1]): Dose-dependent effect | inhibition (INS1 [2]): Active

Cc1ccc2nc(NC(=O)c3ccc(C(C)(C)C)cc3)sc2c1
IC50 [3]: 260 nM | logD (physchem): 5.08

CNCc1ccc2nc(NC(=O)c3ccc(C(C)(C)C)cc3)cn2c1
IC50 [3]: 870 nM | logD (physchem): 2.4

CC(C)(C)c1ccc(C(=O)Nc2cn3cc(Cl)ccc3n2)cc1
IC50 [3]: 16 nM | logD (physchem): 4.04

CC(C)(CO)c1ccc(C(=O)Nc2cn3cc(-n4ccnc4)ccc3n2)cc1
IC50 [3]: 32 nM | logD (physchem): 1.62

CC(C)(O)c1ccc(C(=O)Nc2cn3cc(-n4ccnc4)ccc3n2)cc1
IC50 [3]: 70 nM | logD (physchem): 1.27

CC(C)(C)c1ccc(C(=O)Nc2cn3cc(-c4cccnc4)ccc3n2)cc1
IC50 [3]: 21 nM | logD (physchem): 3.6

CC(C)(C)c1ccc(C(=O)Nc2cn3cc(CO)ccc3n2)cc1
IC50 [3]: 129 nM | logD (physchem): 2.83

CC(C)(C)c1ccc(C(=O)Nc2cn3cc(Br)ccc3n2)cc1
IC50 [3]: 21 nM | logD (physchem): 4.17

CC(C)(C)c1ccc(C(=O)Nc2cn3cc(-n4ccnc4)ccc3n2)cc1 [listing 2 of 3 here]
IC50 [4]: > 10000 nM | IC50 [5]: > 10000 nM | IC50 [6]: > 10000 nM | IC50 [7]: > 10000 nM | IC50 [8]: > 10000 nM | IC50 [9]: > 10000 nM | IC50 [10]: > 10000 nM | IC50 [11]: > 10000 nM | IC50 [12]: 510 nM

CC(C)(C)c1ccc(C(=O)Nc2cn3cc(F)ccc3n2)cc1
IC50 [3]: 34 nM | logD (physchem): 3.55

CC(C)(C)c1ccc(C(=O)Nc2cn3cc(-n4ccnc4)ccc3n2)cc1 [listing 3 of 3 here]
logD (physchem): 3.16

CC(C)(C)c1ccc(C(=O)Nc2cn3cc(-c4ccccc4)ccc3n2)cc1
IC50 [3]: 82 nM | logD (physchem): 4.83

Cc1ccc2nc(NC(=O)c3ccc(C(C)(C)C)cc3)cn2c1
IC50 [3]: 22 nM | logD (physchem): 3.78

CC(C)(C)c1ccc(C(=O)Nc2cn3cc(-n4cccc4)ccc3n2)cc1
IC50 [3]: 30 nM
